The text below walks through data of patent US7998978B2 (Pfizer Inc., priority 2006, dated 2011).

pKi: −log10 of the molar value.

The target of the assay is T1, JNK1α1 (Homo sapiens, UniProt P45983).
T1 construct: catalytic domain containing amino acids 1-364 and N-terminal hexahistidine tag; hexahistidine (His6) (N); made in house; host or cells: E. coli BL21 (DE3)
Description: Coupled spectrophotometric (PK/LDH) JNK1α1 assay: % inhibition and Ki determination. The class given is biochemical. The following applies: for pKi: JNK-1; for inhibition at 1 µM / inhibition at 10 µM: read-out: % Inhibition JNK-1. In a few lines: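 Initial rates were taken from the absorbance decrease at 340 nm at 30° C. Ki was fitted with a tight-binding model over 11 concentrations (top 100 μM); single-point inhibition was tested at 1 or 10 μM.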

The pKi is the Ki on a negative log10 scale, so that one unit is a factor of ten. Read a low pKi as a high Ki. What is called inhibition is the percentage by which the read-out fell short of the control.

T1 sequence (P45983 1-364): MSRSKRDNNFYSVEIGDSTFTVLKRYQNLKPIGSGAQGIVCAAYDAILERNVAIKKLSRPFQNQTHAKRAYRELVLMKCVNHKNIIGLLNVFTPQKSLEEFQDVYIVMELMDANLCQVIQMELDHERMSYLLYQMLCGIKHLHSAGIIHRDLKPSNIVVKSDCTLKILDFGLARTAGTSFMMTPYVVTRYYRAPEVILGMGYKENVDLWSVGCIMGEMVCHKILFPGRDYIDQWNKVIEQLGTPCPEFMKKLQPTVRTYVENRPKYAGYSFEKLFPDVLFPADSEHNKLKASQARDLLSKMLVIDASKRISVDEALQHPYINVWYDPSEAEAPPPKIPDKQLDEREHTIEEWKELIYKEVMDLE

As to `CC[C@@H](CO)NC(=O)c1ccc2cnc(NC(C)C)nc2c1` [Example 411, N-[(1S)-1-(hydroxymethyl)propyl]-2-(isopropylamino)quinazoline-7-carboxamide], the pKi is 5.96.

In the case of `CC(C)(CO)NC(=O)c1ccc2cnc(NC3CCCCC3)nc2c1` [Example 413, 2-(cyclohexylamino)-N-(2-hydroxy-1,1-dimethylethyl)quinazoline-7-carboxamide], the pKi was 5.90.

In turn, `CC[C@H](C)[C@@H](CO)NC(=O)c1ccc2cnc(NC3CCC3)nc2c1` [Example 414, 2-(cyclobutylamino)-N-[(1S,2S)-1-(hydroxymethyl)-2-methylbutyl]quinazoline-7-carboxamide] had a pKi of 5.88.

With `CC(C)Nc1ncc2ccc(C(=O)N[C@H](CO)Cc3ccccc3)cc2n1` [Example 415, N-((1S)-1-benzyl-2-hydroxyethyl]2-(isopropylamino)quinazoline-7-carboxamide], the pKi was 5.83.

In turn, `CC[C@@H](CO)NC(=O)c1ccc2cnc(NC3CCC3)nc2c1` [Example 416, 2-(cyclobutylamino)-N-[(1S)-1-(hydroxymethyl)propyl]quinazoline-7-carboxamide] had a pKi of 5.81. The pKi values of the last two compounds are within 0.2 log units of each other.

Turning to `O=C(N[C@H](CO)Cc1c[nH]cn1)c1ccc2cnc(N[C@H]3CC[C@H](O)CC3)nc2c1` [Example 417, 2-[(trans-4-hydroxycyclohexyl)amino]-N-[(1S)-2-hydroxy-1-(1H-imidazol-4-ylmethyl)ethyl]quinazoline-7-carboxamide], the pKi is 5.77. The pKi values of the last two compounds are within 0.2 log units of each other.

For the compound `C[C@@H](CO)NC(=O)c1ccc2cnc(NC3CCCC3)nc2c1` [Example 418, 2-(cyclopentylamino)-N-[(1S)-2-hydroxy-1-methylethyl]quinazoline-7-carboxamide], the negative-log Ki (pKi) was 5.76.

`O=C(N[C@H](CO)CC1CCCCC1)c1ccc2cnc(NC3CCCC3)nc2c1` [Example 419, N-[(1S)-2-cyclohexyl-1-(hydroxymethyl)ethyl]-2-(cyclopentylamino)quinazoline-7-carboxamide] had a pKi of 5.52.

Turning to `O=C(N[C@H](CO)Cc1ccccc1)c1ccc2cnc(NC3CCC3)nc2c1` [Example 420, N-[(1S)-1-benzyl-2-hydroxyethyl]-2-(cyclobutylamino)quinazoline-7-carboxamide], the inhibition at 1 µM worked out at 21%.

On to `O=C(NC1(CO)CCCC1)c1ccc2cnc(NC3CCCC3)nc2c1` [Example 421, 2-(cyclopentylamino)-N-[1-(hydroxymethyl)cyclopentyl]quinazoline-7-carboxamide], for which the inhibition at 1 µM stood at 15%.

For the compound `O=C(NC1(CO)CCCC1)c1ccc2cnc(NC3CCC3)nc2c1` [Example 422, 2-(cyctobutylamino)-N-[1-(hydroxymethyl)cyclopentyl]quinazoline-7-carboxamide], the inhibition at 1 µM stood at 13%.

As to `CC(C)Nc1ncc2ccc(C(=O)NC3(CO)CCCC3)cc2n1` [Example 423, N-[1-(hydroxymethyl)cyclopentyl]-2-(isopropylamino)quinazoline-7-carboxamide], the inhibition at 1 µM is 15%.

As for `CC(C)[C@@H](CO)NC(=O)c1ccc2cnc(NC3CCC3)nc2c1` [Example 424, 2-(cyclobutylamino)-N-[(1S)-1-(hydroxymethyl)-2-methylpropyl]quinazoline-7-carboxamide], the inhibition at 1 µM is 22%.

Turning to `CC(C)Nc1ncc2ccc(C(=O)N[C@H](CO)C(C)C)cc2n1` [Example 425, N-[(1S)-1-(hydroxymethyl)-2-methylpropyl]-2-(isopropylamino)quinazoline-7-carboxamide], the inhibition at 1 µM amounted to 11%.

With `O=C(NCCO)c1ccc2cnc(NC3CCCCC3)nc2c1` [Example 426, 2-(cyclohexylamino)-N-(2-hydroxyethyl)quinazoline-7-carboxamide], the inhibition at 1 µM was found to be 23%.

Turning to `O=C(NCCO)c1ccc2cnc(NC3CCCC3)nc2c1` [Example 427, 2-(cyclopentylamino)-N-(2-hydroxyethyl)quinazoline-7-carboxamide], the inhibition at 1 µM was determined as 21%.

As to `O=C(N[C@H](CO)CC1CCCCC1)c1ccc2cnc(NC3CCC3)nc2c1` [Example 428, 2-(cyclobutylamino)-N-[(1S)-2-cyclohexyl-1-(hydroxymethyl)ethyl]quinazoline-7-carboxamide], the inhibition at 1 µM was found to be 17%.

For the compound `CC(C)Nc1ncc2ccc(C(=O)N[C@H](CO)CC3CCCCC3)cc2n1` [Example 429, N-[(1S)-2-cyclohexyl-1-(hydroxymethyl)ethyl]-2-(isopropylamino)quinazoline-7-carboxamide], the inhibition at 1 µM stood at 25%.

Turning to `O=C(NCCO)c1ccc2cnc(NC3CCC3)nc2c1` [Example 430, 2-(cyclobutylamino)-N-(2-hydroxyethyl)quinazoline-7-carboxamide], the inhibition at 1 µM came out at 11%.

As to `CC(C)Nc1ncc2ccc(C(=O)NCCO)cc2n1` [Example 431, N-(2-hydroxyethyl)-2-(isopropylamino)quinazoline-7-carboxamide], the inhibition at 1 µM was 15%.

For the compound `CC(C)Nc1ncc2ccc(C(=O)N[C@@H]3COC[C@H]3O)cc2n1` [Example 432, N-((3R,4S)-4-hydroxytetrahydrofuran-3-yl]-2-(isopropylamino)quinazoline-7-carboxamide], the inhibition at 1 µM is 15%.

With `O=C(N[C@@H]1COC[C@H]1O)c1ccc2cnc(NC3CCC3)nc2c1` [Example 433, 2-(cyclobutylamino)-N-[(3R,4S)-4-hydroxytetrahydrofuran-3-yl]quinazoline-7-carboxamide], the inhibition at 1 µM was found to be 24%.

`CC(C)Nc1ncc2ccc(C(=O)N[C@@H](C)CO)cc2n1` [Example 434, N-[(1S)-2-hydroxy-1-methylethyl]-2-(isopropylamino)quinazoline-7-carboxamide]: the inhibition at 1 µM was 15%.

With `O=C(N[C@@H]1COC[C@H]1O)c1ccc2cnc(NC3CCCC3)nc2c1` [Example 435, 2-(cyclopentylamino)-N-[(3R,4S)-4-hydroxytetrahydrofuran-3-yl]quinazoline-7-carboxamide], the inhibition at 1 µM came to 22%.

`CC[C@@H](CO)NC(=O)c1ccc2cnc(NC3CCCC3)nc2c1` [Example 436, 2-(cyctopentylamino)-N-[(1S)-1-(hydroxymethyl)propyl]quinazoline-7-carboxamide]: the inhibition at 10 µM stood at 85%.

For the compound `C[C@@H](CO)NC(=O)c1ccc2cnc(NC3CCC3)nc2c1` [Example 437, 2-(cyclobutylamino)-N-[(1S)-2-hydroxy-1-methylethyl]quinazoline-7-carboxamide], the inhibition at 10 µM was found to be 57%.

As for `CC(C)(CO)NC(=O)c1ccc2cnc(NC3CCCC3)nc2c1` [Example 438, 2-(cyclopentylamino)-N-(2-hydroxy-1,1-dimethylethyl)quinazoline-7-carboxamide], the inhibition at 10 µM amounted to 63%.

Turning to `CC(C)(CO)NC(=O)c1ccc2cnc(NC3CCC3)nc2c1` [Example 439, 2-(cyclobutylamino)-N-(2-hydroxy-1,1-dimethylethyl)quinazoline-7-carboxamide], the inhibition at 10 µM was found to be 44%.

As for `CC(C)Nc1ncc2ccc(C(=O)NC(C)(C)CO)cc2n1` [Example 440, N-(2-hydroxy-1,1-dimethylethyl)-2-(isopropylamino)quinazoline-7-carboxamide], the inhibition at 10 µM came to 48%.
